Experimental data taken from patent publication US6274348A, “Methods for the preparation of positively charged proteins” (XOMA Corporation, priority 1997, dated 2001).

What was measured:
[1] = biological target: T1, rBPI(1-191)-IgG fusion protein (human BPI residues 1-191 fused to human IgG1 heavy chain hinge-CH2-CH3) (Homo sapiens, UniProt P01857+P17213); test: direct 3H-heparin binding assay; settings: highest 3H heparin concentration tested 2.5 μM; protein at 100 pmol/well, one hour at 4° C.
T1 construct: an rBPI(1-191)-IgG fusion protein was added to the wells of a 96-well plate; made in house; host or cells: CHO-DG44
From the text: (§1) A direct ^3 H-heparin binding assay was utilized to analyze the comparative binding of rBPI(1-199) and rBPI-Ig fusions to heparin. The assay was based on the ability of a derivatized nylon membrane to bind proteins with high capacity. Such a membrane has been incorporated into the bottom of 96-well microtiter plates by Millipore Corp. (Bedford Mass.) (MULTISCREEN IP plates) and may be punched out of each well for scintillation counting.
(§2) To conduct the assay, rBPI(1-199) or an rBPI(1-191)-IgG fusion protein was added to the wells of a 96-well plate at a concentration of 100 pmol/well diluted with phosphate buffered saline (PBS), pH 7.4 nylon membrane. Upon absorption to the membrane, the wells were blocked with a blocking buffer comprising 0.1% bovine serum albumin (BSA) in PBS. Serial dilutions of ^3 H heparin (DuPont, NEN, Wilmington, Del.) were made from 4-5 μg/ml in the blocking buffer and incubated in the wells coated with either rBPI(1-199) and rBPI(1-191)-IgG for one hour at 4° C. After one hour, unbound heparin was aspirated and the wells were washed three times with blocking buffer, dried, and removed for quantitation of bound ^3 H-heparin by liquid scintillation counting.

[2] = biological target: T2, rBPI(1-199), first 199 N-terminal amino acids of mature human BPI (SEQ ID NOS: 1 and 2) (Homo sapiens, UniProt P17213); test: direct 3H-heparin binding assay; settings: protein adsorbed to nylon membrane at 100 pmol/well, 3H heparin dilutions, one hour at 4° C., PBS pH 7.4 with 0.1% BSA; read-out: apparent affinity (Kd) for heparin
T2 construct: made in house
T2 sequence (P17213 32-230): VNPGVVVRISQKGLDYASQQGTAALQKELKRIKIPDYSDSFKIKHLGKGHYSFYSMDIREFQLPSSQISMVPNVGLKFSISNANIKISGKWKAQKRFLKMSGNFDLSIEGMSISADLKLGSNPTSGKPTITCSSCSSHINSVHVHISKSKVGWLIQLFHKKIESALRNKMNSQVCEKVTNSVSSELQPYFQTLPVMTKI
From the text: as §1, §2

T1 sequence (P17213+P01857 fused): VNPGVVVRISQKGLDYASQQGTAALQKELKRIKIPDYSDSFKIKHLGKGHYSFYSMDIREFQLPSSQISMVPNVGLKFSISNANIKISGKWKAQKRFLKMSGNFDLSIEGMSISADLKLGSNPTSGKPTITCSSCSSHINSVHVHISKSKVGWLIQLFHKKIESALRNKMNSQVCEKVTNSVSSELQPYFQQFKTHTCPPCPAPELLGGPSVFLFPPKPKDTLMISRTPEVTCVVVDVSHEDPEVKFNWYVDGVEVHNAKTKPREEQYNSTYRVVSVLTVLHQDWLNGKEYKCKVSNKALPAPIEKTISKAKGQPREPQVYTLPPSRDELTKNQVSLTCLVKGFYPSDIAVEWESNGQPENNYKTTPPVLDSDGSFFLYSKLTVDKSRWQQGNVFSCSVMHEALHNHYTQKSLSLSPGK

In the case of heparin, the “saturation of 3H heparin binding” value [1] is reported as “did not reach saturation” and the Kd [2] is reported as 114 ± 30 nM.
